Converted amounts (≈) assume the structure as drawn. Like-named read-outs stand apart in the source and are kept apart here. Where a SMILES comes first, the peptide text is derived from it.
What was measured:
[1] = tested on: E. faecium wildtype and eep-mutant strains; assay: Lysozyme tolerance MIC assay; format: cell-based, Enterococcus faecium
Experimental: To test for lysozyme tolerance the wild type and mutant strains were grown over night and subjected to a standard MIC assay as previously described with twofold dilutions of lysozyme ([Holo et al., 1991]). In addition, a spot-on-lawn assay was performed with 10 μl 250 mg/ml lysozyme spotted on a lawn of cells.

[2] = Antibacterial effect (MIC) after incubation in blood, plasma or saline; format: cell-based; conditions: for MIC in blood: 1 mg/ml added to whole human blood (EDTA)
Experimental: To test whether the antibacterial effect of the bacteriocins was reduced in blood, an assay was performed where whole blood was collected from two healthy volunteers, with EDTA as an anticoagulant. Directly after blood sampling each bacteriocin was added to a concentration of 1mg/ml. […] Samples were collected at specific time points and bacteriocin activity was determined using the standard MIC assay as previously described ([Holo et al., 1991]). The experiment was repeated three times and the error bars represent the standard deviation.
The presented MIC values are the average of three experiments. Each bacteriocin was added to whole human blood to reach a concentration of 1 mg/ml. […] RT is short for room temperature.

human erythrocytes = assay: Haemolysis assay
Experimental: To assess the haemolytic effect whole blood was drawn from two healthy human volunteers, pooled and distributed in 1 ml aliquots. The aliquots were spun down at 1,000 × g for 5 min at 4°C to separate erythrocytes from plasma. The erythrocytes were washed three times with saline (0.9% NaCl) and resuspended in 100 μl saline. […] SDS in saline was added as a control, since bacteriocins were solved in saline. The samples were incubated at 37°C for 1 h and then spun down again to remove intact erythrocytes. The supernatant was measured for absorbance at 540 nm in order to measure degree of haemolysis. […] The experiment was repeated three times to allow for statistical analysis.
Whole human blood was mixed with each bacteriocin in saline to a final concentration of 1, 0.1, and 0.01 mg/ml. The samples were incubated at 37°C before the erythrocytes were spun down and the supernatant was read at OD540.

E. faecium = conditions: three parallels
Experimental: Unless otherwise specified the bacterial strains were grown in brain heart infusion (BHI) medium (Oxoid) at 37°C under aerobic conditions without shaking.
The peptides were stored at −20°C until use. The amino acid sequences of the bacteriocins are […] RPVA and […] […] Bacteriocin activity was determined using a microtiter assay as previously described ([Holo et al., 1991]).

[3] = tested on: E. faecium LMGT 20705 and E. faecium 42 ACA-D6 0237; assay: Effect of autoclaving on antibacterial activity, E. faecium; format: cell-based, Enterococcus faecium; conditions: in MilliQ water with 0.1% TFA, standard autoclaving; MIC against E. faecium LMGT 20705 and 42 ACA-D6 0237
Source text: A pre-requisite for intravenous administration is complete sterility of the compound ([Paese et al., 2017]). The simplest manner to achieve this is through autoclaving. However, this can cause degradation of the compound and therefore be detrimental to the antibacterial effect. Also, if the compound is degraded into unknown constituents this may cause unintended interactions. Therefore, we exposed the bacteriocins to a standard autoclaving procedure.
Each bacteriocin was solved in MilliQ water with 0.1% TFA and then autoclaved. […] Strains: 20705 is short for E. faecium LMGT 20705; 0237 for E. faecium 42 ACA-D6 0237; D6 for E. faecalis D6; and MMH594 for E. faecalis MMH594.

[4] = tested on: bacteriocin-resistant enterococcal cells (eep-mutants); conditions: colonies from inhibition zones of spot-on-lawn assay; 'mostly above'; cross-resistant
Experimental: Bacteriocin resistant mutants were obtained by a spot-on-lawn assay, where liquid bacteriocin was spotted on a lawn of indicator cells, using 10μl of bacteriocin in concentrations 0.5–5 mg/ml. The plates were incubated at 30°C overnight and resistant colonies were selected from the inhibition zones and re-streaked on new plates for isolated colonies. Pure cultures were made and stored in 15% glycerol at −80°C. The eep gene was PCR amplified and sequenced with specific primers: eep in E. faecium was amplified using primers Eepf4F + Eepf4R and sequenced using primers Eepf1R - Eepf6R and Eepf1F - Eepf6F. eep in E. faecalis was amplified using primers Eepfa1R + Eepfa3F and sequenced using primers Eepfa1R - Eepfa3R, Eepf1R - Eepf3R and Eepfa1F - Eepfa3F.
The samples were sent to GATC Biotech, Germany for sequencing. MIC of the resistant mutants was scored using a microtiter assay as previously described ([Holo et al., 1991]).

[5] = starting value (time not given), average of three experiments

Compound: Lysozyme
- Lysozyme MIC ([1]; E. faecium 7422c.522del (M, eep-mutant)): 1950 µg/mL
- Lysozyme MIC ([1]; E. faecium 7422c.C64A (M, eep-mutant)): 1950 µg/mL
- Lysozyme MIC ([1]; E. faecium E7422 (WT)): 15630 µg/mL
- Lysozyme MIC ([1]; E. faecium P21 (WT), twofold dilutions of lysozyme): 15630 µg/mL
- Lysozyme MIC ([1]; E. faecium P21c.G716A (M, eep-mutant)): 980 µg/mL
- Lysozyme MIC ([1]; E. faecium P21c.ins7 (M, eep-mutant)): 980 µg/mL
- Lysozyme MIC ([1]; E. faecium P21c.ins23 (M, eep-mutant)): 980 µg/mL
- Lysozyme MIC ([1]; E. faecium P21c.ins43 (M, eep-mutant)): 980 µg/mL
- Lysozyme MIC, wildtype strains ([1]; wildtype strains P21 and E7422): 15630 µg/mL

Compound: CC1(C)S[C@@H]2[C@H](NC(=O)[C@H](N)c3ccccc3)C(=O)N2[C@H]1C(=O)O [Ampicillin, reference compound]
- MIC in blood [2, 5]: 1.56 µg/mL (≈ 4.46 µM)
- Loss of activity after 48 h incubation ([2]; 48 h incubation at 37°C in blood and similar conditions): fourfold

Compound: CCCCCCCCCCCCOS(=O)(=O)[O-].[Na+] [SDS, reference compound]
- Visual haemolysis (redness of supernatant) (human erythrocytes): complete haemolysis

Compound: CC[C@H](C)[C@H](NC(=O)[C@H](CCC(=O)O)NC(=O)[C@H](Cc1ccc(O)cc1)NC(=O)[C@H](CCC(N)=O)NC(=O)[C@@H](NC(=O)[C@H](CC(C)C)NC(=O)[C@H](CCCCN)NC(=O)[C@H](CCCCN)NC(=O)[C@@H](NC(=O)[C@@H](NC(=O)[C@@H](NC(=O)CNC(=O)[C@@H](NC(=O)[C@@H]1CCCN1C(=O)[C@H](CC(N)=O)NC(=O)[C@H](Cc1ccccc1)NC(=O)[C@H](CCCCN)NC(=O)[C@H](Cc1ccccc1)NC(=O)[C@H](CCCCN)NC(=O)[C@@H](N)CCSC)[C@@H](C)O)[C@@H](C)O)[C@@H](C)CC)C(C)C)[C@@H](C)O)C(=O)N[C@@H](C)C(=O)N[C@@H](Cc1c[nH]c2ccccc12)C(=O)N[C@@H](Cc1ccccc1)C(=O)N[C@@H](CCCCN)C(=O)N[C@@H](CC(N)=O)C(=O)N[C@@H](CCCCN)C(=O)N[C@@H](Cc1c[nH]cn1)C(=O)NCC(=O)N[C@@H](Cc1ccc(O)cc1)C(=O)N[C@@H](Cc1ccc(O)cc1)C(=O)N1CCC[C@H]1C(=O)N[C@@H](Cc1c[nH]c2ccccc12)C(=O)N[C@@H](CCC(=O)O)C(=O)N[C@H](C(=O)N1CCC[C@H]1C(=O)N[C@@H](CCCNC(=N)N)C(=O)N[C@@H](CS)C(=O)O)[C@@H](C)CC [EntK1, enterocin K1] (H-MKFKFNPTGTIVKKLTQYEIAWFKNKHGYYPWEIPRC-OH; N-terminus and C-terminus assumed)
- MIC of EntK1 (E. faecium; strain E1469 (N, nosocomial), MIC = at least 50% growth inhibition): 0.39 µg/mL
- MIC of EntK1 (E. faecium; strain E3160 (N, nosocomial), MIC = at least 50% growth inhibition): 0.39 µg/mL
- MIC of EntK1 (E. faecium; strain E3449 (N, nosocomial), MIC = at least 50% growth inhibition): 0.39 µg/mL
- MIC of EntK1 (E. faecium; strain E6072 (N, nosocomial), MIC = at least 50% growth inhibition): 0.19 µg/mL
- MIC of EntK1 (E. faecium; strain E6094 (N, nosocomial), MIC = at least 50% growth inhibition): 0.39 µg/mL
- MIC of EntK1 (E. faecium; strain E6856 (N, nosocomial), MIC = at least 50% growth inhibition): 0.39 µg/mL
- MIC of EntK1 (E. faecium; strain E7195 (N, nosocomial), MIC = at least 50% growth inhibition): 0.39 µg/mL
- MIC of EntK1 (E. faecium; strain E7422 (N, nosocomial), MIC = at least 50% growth inhibition): 0.19 µg/mL
- MIC of EntK1 (E. faecium; strain E7660 (N, nosocomial), MIC = at least 50% growth inhibition): 0.39 µg/mL
- MIC of EntK1 (E. faecium; strain E8150 (N, nosocomial), MIC = at least 50% growth inhibition): 0.78 µg/mL
- MIC of EntK1 (E. faecium; strain LMGT 20705 (L, laboratory), MIC = at least 50% growth inhibition): <0.048 µg/mL
- MIC of EntK1 (E. faecium; strain P21 (L, laboratory), MIC = minimum concentration inhibiting growth by at least 50% vs control, 200 μl culture): <0.048 µg/mL
- Visual haemolysis (redness of supernatant compared to saline) (human erythrocytes; 1 mg/ml in saline, 37°C): did not cause haemolysis
- Haemolysis of erythrocytes (human erythrocytes; 0.01, 0.1 and 1 mg/ml in saline, washed human erythrocytes (two volunteers, pooled), 37°C, 1 h, supernatant absorbance 540 nm, repeated three times): non-haemolytic
- Effect of autoclaving on MIC [3]: did not affect
- MIC in blood [2, 5]: 0.78 µg/mL (≈ 0.171 µM)
- MIC in saline ([2]; 1 mg/ml in saline, first value (time not given), indicator strain not stated, average of three experiments): 0.19 µg/mL (≈ 0.0416 µM)
- MIC in plasma ([2]; added to human plasma, starting value (time not given), average of three experiments): 0.78 µg/mL (≈ 0.171 µM)
- MIC in plasma after 8 h ([2]; human plasma, 8 h incubation at 37°C, average of three experiments): 0.78 µg/mL (≈ 0.171 µM)
- MIC in plasma at 48 h ([2]; human plasma, 48 h incubation at 37°C, average of three experiments): 1.56 µg/mL (≈ 0.342 µM)
- MIC in saline after 8 h ([2]; saline, 8 h incubation at 37°C, average of three experiments): stayed at the same level
- MIC in saline at 48 h ([2]; saline, 48 h incubation at 37°C, average of three experiments): 0.39 µg/mL (≈ 0.0854 µM)
- MIC ratio blood to plasma ([2]; same at all time points, 37°C): 2 ×
- MIC ratio plasma to saline ([2]; same at all time points, 37°C): 2 ×
- MIC in blood after 8 h ([2]; whole human blood (EDTA), 1 mg/ml, 8 h incubation at 37°C, average of three experiments): approximately 1.56 μg/ml
- MIC in blood at 48 h ([2]; whole human blood (EDTA), 1 mg/ml, 48 h incubation at 37°C, average of three experiments): 3.125 µg/mL (≈ 0.685 µM)
- MIC in blood compared to saline (fold higher) ([2]; whole human blood vs saline, 37°C): 4 ×
- MIC against cells from resistant colonies [4]: above 25 μg/ml
